This is an account of results in patent publication US5767126A, “Alzheimer's disease treatment with tacrine metabolites” (priority 1991, dated 1998).

Test [1] addresses T1, acetylcholinesterase (Homo sapiens, UniProt P22303). The experiment in a line: Acetylcholinesterase inhibition, photometric method of Ellman. It is filed as biochemical. To be noted: pI is a logarithmic measure of capacity to prevent the action of acetylcholinesterase, read-out: Cholinesterase inhibition pI (converted). A general note: Ellman's reagent forms a yellow product with free thiols.

In test [2] the target is T1, acetylcholinesterase. To be noted: figure obtained from the study by P. N. Kaul (J. Pharm. Pharmacol. 1962); cited from earlier work.

T1 sequence (P22303 32-614): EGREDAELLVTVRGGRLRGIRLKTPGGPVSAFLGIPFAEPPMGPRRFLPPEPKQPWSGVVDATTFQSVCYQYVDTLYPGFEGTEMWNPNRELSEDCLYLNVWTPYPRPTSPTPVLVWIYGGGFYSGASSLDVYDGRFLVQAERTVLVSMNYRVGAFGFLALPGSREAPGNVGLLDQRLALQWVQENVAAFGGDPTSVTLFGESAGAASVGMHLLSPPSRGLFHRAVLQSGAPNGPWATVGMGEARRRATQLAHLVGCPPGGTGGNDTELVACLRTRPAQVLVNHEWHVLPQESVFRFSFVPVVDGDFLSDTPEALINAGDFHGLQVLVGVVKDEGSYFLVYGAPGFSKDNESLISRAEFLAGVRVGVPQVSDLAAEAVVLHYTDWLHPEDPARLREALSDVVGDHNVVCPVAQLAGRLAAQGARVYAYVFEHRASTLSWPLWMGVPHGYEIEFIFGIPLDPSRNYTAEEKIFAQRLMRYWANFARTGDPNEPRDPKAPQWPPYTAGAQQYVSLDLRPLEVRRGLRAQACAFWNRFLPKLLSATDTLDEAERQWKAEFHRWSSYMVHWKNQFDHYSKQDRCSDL

Regarding `Nc1c2ccccc2nc2c(O)ccc(O)c12` [9-amino-1,4-dihydroxyacridine], in test [1], the IC50 was 316 nM.
`Nc1ccnc2ccccc12` [4-aminoquinoline]: the “Cholinesterase inhibition pI” value in test [2] is 4.3.
On to `Nc1c2c(nc3ccccc13)C(=O)CC(O)C2O` (stereo not drawn) [9-amino-1,2-dihydroacridin-1,2-diol 4(3H)-one], for which the IC50 in test [1] is 501 nM.
With `Nc1c2c(nc3ccccc13)C(O)C(O)C(O)C2` (stereo not drawn) [9-amino-1,2,3,4-tetrahydroacridin-2,3,4-triol], the IC50 in test [1] was 126 nM.
On the same count and under the same terms, under `Nc1c2c(nc3ccccc13)CCC(O)C2O` (stereo not drawn) [9-amino-1,2,3,4-tetrahydroacridin-1,2-diol] stands 1260 nM; under `Nc1c2c(nc3ccccc13)C=CC(O)C2O` (stereo not drawn) [9-amino-1,2-dihydroacridin-1,2-diol], 631 nM.
Still for that read-out and setting: under `Nc1c2ccccc2nc2c(O)cc(O)cc12` [9-amino-2,4-dihydroxyacridine] stands 158 nM; under `Nc1c2c(nc3ccccc13)C(O)C(O)C(O)C2O` (stereo not drawn) [9-amino-1,2,3,4-tetrahydroacridin 1,2,3,4-tetraol], 158 nM; under `Nc1c2c(nc3ccccc13)C(O)C(O)CC2` (stereo not drawn) [9-amino-1,2,3,4-tetrahydroacridin-3,4-diol], 200 nM.
